Earlier results as cited in patent publication US20100216762A1, “Agonists and Antagonists of the S1P5 Receptor, and Methods of Use Thereof” (ABBOTT LABORATORIES, priority 2009, published 2010).

Columns and labels:
[1] = spared-nerve injury model of neuropathic pain

SMILES	nociception in the formalin model	nociceptive behavior in the spared-nerve injury model [1]	Aβ-induced migration of monocytes to sites of injury (monocytes)
FC(F)(F)c1cccc(-c2noc(-c3cc(-c4ccccc4)c(C(F)(F)F)s3)n2)c1 [SEW2871]	lack of activity		
CCCCCCCCc1ccc(CCC(N)(CO)CO)cc1 [FTY720]	anti-nociceptive	reduced nociceptive behavior	inhibits that migration
